Literature values in patent US8960128B2, “Topical anesthetic composition” (Animal Ethics Pty Ltd, priority 2005, dated 2015).

What was measured:
[1] = sheep, topically applied
[2] = typically up to about; depending on the method of administration

| SMILES | total dose that should not be exceeded [1] | duration of anesthesia [2] |
| --- | --- | --- |
| CCN(CC)CC(=O)Nc1c(C)cccc1C [lignocaine] | ≤ 50 mg/kg | – |
| CCCCN1CCCCC1C(=O)Nc1c(C)cccc1C (centres unmarked) [bupivacaine] | – | 6 to 12 h |
